Measured values as given in ChEMBL document CHEMBL1135444, “Elucidating the inhibiting mode of AHPBA derivatives against HIV-1 protease and building predictive 3D-QSAR models” (J Med Chem, 2002).

Target: Human immunodeficiency virus type 1 protease (Human immunodeficiency virus 1, UniProt Q72874)
Test: Inhibitory activity against HIV-1 protease

SMILES | IC50 [nM]
Cc1cc(O)c(C)c(C(=O)N[C@@H](Cc2ccccc2)[C@H](O)C(=O)N2C[C@@H](Cl)C[C@H]2C(=O)NC(C)(C)C)c1 | 1.3
COc1cccc(C(=O)N[C@@H](Cc2ccccc2)[C@H](O)C(=O)N2C[C@@H](Cl)C[C@H]2C(=O)NC(C)(C)C)c1O | 1000
Cc1c(O)cccc1C(=O)N[C@@H](Cc1ccccc1)[C@H](O)C(=O)N1C[C@@H](Cl)C[C@H]1C(=O)NC(C)(C)C | 0.8
CC(C)(C)NC(=O)[C@@H]1C[C@H](Cl)CN1C(=O)[C@@H](O)[C@H](Cc1ccccc1)NC(=O)c1cccc(O)c1Br | 1.5
Cc1cc(O)c(C)c(C(=O)N[C@@H](Cc2cc(F)cc(F)c2)[C@H](O)C(=O)N2C[C@@H](Cl)C[C@H]2C(=O)NC(C)(C)C)c1 | 1.2
Cc1c(O)cc(F)cc1C(=O)N[C@@H](Cc1cccc(C(F)(F)F)c1)[C@H](O)C(=O)N1C[C@@H](Cl)C[C@H]1C(=O)NC(C)(C)C | 2.1
Cc1ccc(C(=O)N[C@@H](Cc2cccc(C(F)(F)F)c2)[C@H](O)C(=O)N2C[C@@H](Cl)C[C@H]2C(=O)NC(C)(C)C)c(C)c1O | 3.5
Cc1ccc(O)c(C)c1C(=O)N[C@@H](Cc1ccc(C(F)(F)F)cc1)[C@H](O)C(=O)N1C[C@@H](Cl)C[C@H]1C(=O)NC(C)(C)C | 3.9
Cc1ccc(O)c(C)c1C(=O)N[C@@H](Cc1ccccc1)[C@H](O)C(=O)N1C[C@@H](Cl)C[C@H]1C(=O)NC(C)(C)C | 2.5
Cc1cc(O)c(C)c(C(=O)N[C@@H](Cc2ccc3ccccc3c2)[C@H](O)C(=O)N2C[C@@H](Cl)C[C@H]2C(=O)NC(C)(C)C)c1 | 0.8
Cc1ccc(C[C@H](NC(=O)c2ccc(C)c(O)c2C)[C@H](O)C(=O)N2C[C@@H](Cl)C[C@H]2C(=O)NC(C)(C)C)cc1 | 8.6
Cc1cc(O)c(C)c(C(=O)N[C@@H](Cc2cccc(C(F)(F)F)c2)[C@H](O)C(=O)N2C[C@@H](Cl)C[C@H]2C(=O)NC(C)(C)C)c1 | 1.9
CC(C)(C)NC(=O)[C@@H]1C[C@H](Cl)CN1C(=O)[C@@H](O)[C@H](Cc1ccccc1)NC(=O)c1ccccc1O | 1000
Cc1ccc(C(=O)N[C@@H](Cc2ccc3ccccc3c2)[C@H](O)C(=O)N2C[C@@H](Cl)C[C@H]2C(=O)NC(C)(C)C)c(C)c1O | 3.2
Cc1cccc(C[C@H](NC(=O)c2ccc(C)c(O)c2C)[C@H](O)C(=O)N2C[C@@H](Cl)C[C@H]2C(=O)NC(C)(C)C)c1 | 2.5
Cc1ccc(C(=O)N[C@@H](Cc2ccc(C(F)(F)F)cc2)[C@H](O)C(=O)N2C[C@@H](Cl)C[C@H]2C(=O)NC(C)(C)C)c(C)c1O | 6.3
CC(C)(C)NC(=O)[C@@H]1C[C@H](Cl)CN1C(=O)[C@@H](O)[C@H](Cc1ccccc1)NC(=O)c1ccccc1Cl | 11
Cc1ccccc1C[C@H](NC(=O)c1ccc(C)c(O)c1C)[C@H](O)C(=O)N1C[C@@H](Cl)C[C@H]1C(=O)NC(C)(C)C | 49.9

SMILES | IC50 [nM]
Cc1cccc(C)c1C(=O)N[C@@H](Cc1ccccc1)[C@H](O)C(=O)N1C[C@@H](Cl)C[C@H]1C(=O)NC(C)(C)C | 3.6
CC(C)(C)NC(=O)[C@@H]1C[C@H](Cl)CN1C(=O)[C@@H](O)[C@H](Cc1ccccc1)NC(=O)c1ccccc1 | 26
Cc1ccc(C(=O)N[C@@H](Cc2ccccc2)[C@H](O)C(=O)N2C[C@@H](Cl)C[C@H]2C(=O)NC(C)(C)C)c(C)c1O | 8.2
Cc1ccc(O)c(C)c1C(=O)N[C@@H](Cc1ccc2ccccc2c1)[C@H](O)C(=O)N1C[C@@H](Cl)C[C@H]1C(=O)NC(C)(C)C | 2.8
CC(C)(C)NC(=O)[C@@H]1C[C@H](Cl)CN1C(=O)[C@@H](O)[C@H](Cc1ccccc1)NC(=O)c1ccc(O)cc1 | 33
CC(C)(C)NC(=O)[C@@H]1C[C@H](Cl)CN1C(=O)[C@@H](O)[C@H](Cc1ccccc1)NC(=O)c1ccccc1N | 39
Cc1c(N)cccc1C(=O)N[C@@H](Cc1ccccc1)[C@H](O)C(=O)N1C[C@@H](Cl)C[C@H]1C(=O)NC(C)(C)C | 5.4
Cc1ccc(C[C@H](NC(=O)c2c(C)ccc(O)c2C)[C@H](O)C(=O)N2C[C@@H](Cl)C[C@H]2C(=O)NC(C)(C)C)cc1 | 3.6
Cc1c(O)cc(F)cc1C(=O)N[C@@H](Cc1ccccc1)[C@H](O)C(=O)N1C[C@@H](Cl)C[C@H]1C(=O)NC(C)(C)C | 1.7
Cc1ccc(O)c(C)c1C(=O)N[C@@H](Cc1cccc(C(F)(F)F)c1)[C@H](O)C(=O)N1C[C@@H](Cl)C[C@H]1C(=O)NC(C)(C)C | 4.6
CC(C)(C)NC(=O)[C@@H]1C[C@H](Cl)CN1C(=O)[C@@H](O)[C@H](Cc1ccccc1)NC(=O)c1ccccc1Br | 12
CC(C)(C)NC(=O)[C@@H]1C[C@H](Cl)CN1C(=O)[C@@H](O)[C@H](Cc1ccccc1)NC(=O)c1cccc(O)c1 | 9
Cc1cccc(C[C@H](NC(=O)c2c(C)ccc(O)c2C)[C@H](O)C(=O)N2C[C@@H](Cl)C[C@H]2C(=O)NC(C)(C)C)c1 | 3.4
Cc1cccc(C[C@H](NC(=O)c2cc(C)cc(O)c2C)[C@H](O)C(=O)N2C[C@@H](Cl)C[C@H]2C(=O)NC(C)(C)C)c1 | 1.3
Cc1ccccc1C[C@H](NC(=O)c1c(C)ccc(O)c1C)[C@H](O)C(=O)N1C[C@@H](Cl)C[C@H]1C(=O)NC(C)(C)C | 34.3
CC(C)(C)NC(=O)[C@@H]1C[C@H](Cl)CN1C(=O)[C@@H](O)[C@H](Cc1ccccc1)NC(=O)c1ccccc1I | 14
Cc1c(O)cc(F)cc1C(=O)N[C@@H](Cc1ccc2ccccc2c1)[C@H](O)C(=O)N1C[C@@H](Cl)C[C@H]1C(=O)NC(C)(C)C | 1.2
Cc1cc(O)c(C)c(C(=O)N[C@@H](Cc2ccc(-c3ccccc3)cc2)[C@H](O)C(=O)N2C[C@@H](Cl)C[C@H]2C(=O)NC(C)(C)C)c1 | 1.3
